# Measured values published in EP4603105A1, “PHARMACEUTICAL COMPOSITION CONTAINING CYCLIC COMPOUND HAVING SELECTIVE KRAS INHIBITORY EFFECT AGAINST HRAS AND NRAS” (CHUGAI SEIYAKU KABUSHIKI KAISHA, priority 2022, dated 2024).
# pIC50: −log10 of the molar value. Where two headings read alike, the source gives them in different places. *1 amine or outer side, *2 acyl side, *3 side chain or, on linkers, in order; H or OH if unused. Where a SMILES comes first, the peptide text is derived from it. Bridges are numbered along the chain shown (N, C = ends). [ ]: non-standard residue; d: D form. The star is where a group is joined. hPhe(3,5-F2-4-CF3) = N[C@@H](CCc1cc(F)c(C(F)(F)F)c(F)c1)C(=O)O; hPhe(3-Cl-4-CF3) = N[C@@H](CCc1ccc(C(F)(F)F)c(Cl)c1)C(=O)O; X39 = O=C([C@H](Cc1ccc(C(F)(F)F)cc1)N(CC1CCC1)[*:1])[*:2]; NPrPhe(4-CF3) = CCCN[C@@H](Cc1ccc(C(F)(F)F)cc1)C(=O)O; NMeGly(cPent) = CN[C@H](C(=O)O)C1CCCC1; Hyp = O=C(O)[C@@H]1C[C@@H](O)CN1; NMeD = CN[C@@H](CC(=O)O)C(=O)O; Ac4c(3-oxa) = NC1(C(=O)O)COC1; NMeL = CN[C@@H](CC(C)C)C(=O)O; Morpholide = C1CN(*)CCO1; NMeA = CN[C@@H](C)C(=O)O; Ac5c = NC1(C(=O)O)CCCC1; Aze = O=C(O)[C@@H]1CCN1; Sar = CNCC(=O)O
# Legend:
# [1] = target: GDP-bound NRAS wild-type protein (Homo sapiens, UniProt P01111); assay: Binding to NRAS by surface plasmon resonance (SPR), KD and KD ratio to KRAS
# How it was run: (§1)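 Each cycle, GDP-bound biotin-Avi RAS was captured (~100–300 RU), compound concentrations were injected low to high for 75 s each at 100 µL/min, then the chip was regenerated. Buffer: HBS pH 7.4, 10 mM MgCl2, 10 µM GDP, 1 mM DTT, 4% DMSO; 30°C. KD from a 1:1 binding model.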
# [2] = target: HRAS wild-type protein (Homo sapiens, UniProt P01112); assay: Binding to HRAS by surface plasmon resonance (SPR), KD and KD ratio to KRAS
# How it was run: as §1
# [3] = system: human lung cancer strain NCI-H441; format: cell-based
# How it was run: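 Signal came from […] measured per well once the reagent was added. Beforehand, cells were cultured at 37°C and 5% carbon dioxide on a compound series serially diluted in dimethyl sulfoxide.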
# [4] = ratio of KD for GDP-bound NRAS wild-type protein to KD for KRAS
# [5] = ratio of KD for HRAS wild-type protein to KD for KRAS
# [6] = ratio of the KD value with respect to GDP-bound NRAS wild-type protein to the KD value with respect to KRAS
# [7] = ratio of the KD value with respect to HRAS wild-type protein to the KD value with respect to KRAS
# [8] = ratio of KD value for GDP-bound NRAS wild-type protein to KD value for KRAS (SPR)
# [9] = ratio of KD value for HRAS wild-type protein to KD value for KRAS (SPR)
# Sequence of HRAS wild-type protein (P01112 whole entry): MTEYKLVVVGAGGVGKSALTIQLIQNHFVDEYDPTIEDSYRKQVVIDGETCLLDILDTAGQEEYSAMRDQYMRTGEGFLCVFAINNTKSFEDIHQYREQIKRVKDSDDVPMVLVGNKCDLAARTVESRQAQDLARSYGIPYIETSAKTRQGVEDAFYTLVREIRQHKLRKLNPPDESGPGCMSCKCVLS
# Sequence of GDP-bound NRAS wild-type protein (P01111 whole entry): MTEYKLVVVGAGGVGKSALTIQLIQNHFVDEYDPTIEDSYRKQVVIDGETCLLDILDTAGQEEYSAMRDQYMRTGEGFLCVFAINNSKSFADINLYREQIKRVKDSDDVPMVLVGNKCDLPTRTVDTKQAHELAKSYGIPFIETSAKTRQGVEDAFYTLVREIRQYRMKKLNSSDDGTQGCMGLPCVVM
pIC50 [3],"pIC50 ([3]; NCI-H441 cells, 4 days, CellTiter-Glo, read-out: NCl-H441 IC50)",Compound,"NRAS /KRAS [1, 4]","HRAS /KRAS [2, 5]","NRAS /KRAS [1, 6]","HRAS /KRAS [2, 7]","NRAS /KRAS [1, 8]","HRAS /KRAS [2, 9]"
7.74,–,CCO[C@@H]1C[C@H]2C(=O)NC3(CCC3)C(=O)N(C)[C@@H](C3CCCC3)C(=O)N(C)[C@H](C(=O)N(C)C)CC(=O)N(C)[C@@H](CC)C(=O)N[C@@H]([C@@H](C)CC)C(=O)N(C)CC(=O)N(C)[C@H]3C[C@@H](C)CCN(C3=O)[C@@H](Cc3ccc(C(F)(F)F)cc3)C(=O)N(C)CC(=O)N[C@@H](CCc3cc(F)c(C(F)(F)F)c(F)c3)C(=O)N2C1 [PP1020],C (A compound having a KD ratio of 0.1 or more and less than 3 is denoted as C),B (a compound having 3 or more and less than 10 is denoted as B),–,–,–,–
7.83,–,CCC[C@H]1C(=O)N[C@@H]([C@@H](C)CC)C(=O)N(C)CC(=O)N(C)[C@H]2C/C=C\CCN(C2=O)[C@@H](Cc2ccc(C)cc2)C(=O)N(C)CC(=O)N[C@@H](CCc2ccc(C(F)(F)F)c(Cl)c2)C(=O)N2C[C@H](OCC)C[C@H]2C(=O)NC2(CC(C)(C)C2)C(=O)N(C)[C@@H](CC(F)(F)F)C(=O)N(C)[C@H](C(=O)N(C)C)CC(=O)N1C [PP2226],–,–,A (a compound having 10 or more and less than 20 is denoted as A),A (a compound having 10 or more and less than 20 is denoted as A),–,–
8.42,–,CC[C@H](C)[C@@H]1NC(=O)[C@H](CC2CC2)N(C)C(=O)C[C@@H](C(=O)N2CCCC2)N(C)C(=O)[C@H](C2CCCC2)N(C)C(=O)C2(CCCC2)NC(=O)[C@@H]2C[C@@H](F)CN2C(=O)[C@H](CCc2cc(F)c(C(F)(F)F)c(F)c2)NC(=O)CN(C)C(=O)[C@H](Cc2ccc(C(F)(F)F)cc2)N2CC/C=C\C[C@@H](C2=O)N(C)C(=O)CN(C)C1=O [PP1503],–,–,–,–,A (a compound having 10 or more and less than 20 is denoted as A),A (a compound having 10 or more and less than 20 is denoted as A)
6.81,–,CCO[C@@H]1C[C@H]2C(=O)NC3(CCC3)C(=O)N(C)[C@@H](C3CCCC3)C(=O)N(C)[C@H](C(=O)N(C)C)CC(=O)N(C)[C@@H](Cc3ccc(C)cc3)C(=O)N[C@@H]([C@@H](C)CC)C(=O)N(C)CC(=O)N(C)[C@H]3CCCCCN(C3=O)[C@@H](Cc3ccc(C(F)(F)F)cc3)C(=O)N(C)CC(=O)N[C@@H](CCc3cc(F)c(C(F)(F)F)c(F)c3)C(=O)N2C1 [PP0943],B (a compound having 3 or more and less than 10 is denoted as B),B (a compound having 3 or more and less than 10 is denoted as B),–,–,–,–
–,8.52,CCO[C@@H]1C[C@H]2C(=O)NC3(CC(C)(C)C3)C(=O)N(C)[C@@H](C3CCCC3)C(=O)N(C)[C@H](C(=O)N(C)C)CC(=O)N(C)[C@@H](CC(C)C)C(=O)N[C@@H]([C@@H](C)CC)C(=O)N(C)CC(=O)N(C)[C@H]3C/C=C\CCN(C3=O)[C@@H](Cc3ccc(C(C)(F)F)cc3)C(=O)N(C)CC(=O)N[C@@H](CCc3ccc(C(F)(F)F)c(OC)c3)C(=O)N2C1 [PP2690],AA (a compound having 20 or more is denoted as AA),A (a compound having 10 or more and less than 20 is denoted as A),–,–,–,–
7.44,–,CCO[C@@H]1C[C@H]2C(=O)NC3(CC(C)(C)C3)C(=O)N(C)[C@@H](C(CC)CC)C(=O)N(C)[C@H](C(=O)N3CCCC3)CC(=O)N(C)[C@@H](C)C(=O)N[C@@H]([C@@H](C)CC)C(=O)N(C)CC(=O)N(C)[C@H]3C/C=C\CCN(C3=O)[C@@H](Cc3ccc(C(F)(F)F)cc3)C(=O)N(C)CC(=O)N[C@@H](CCc3ccc(Cl)c(Cl)c3)C(=O)N2C1 [PP2178],–,–,AA (a compound having 20 or more is denoted as AA),A (a compound having 10 or more and less than 20 is denoted as A),–,–
7.91,–,CCO[C@@H]1C[C@H]2C(=O)NC3(CC(C)(C)C3)C(=O)N(C)[C@@H](C3CCCC3)C(=O)N(C)[C@H](C(=O)N(C)CC)CC(=O)N(C)[C@@H](CC)C(=O)N[C@@H]([C@@H](C)CC)C(=O)N(C)CC(=O)N(C)[C@H]3C/C=C\CCN(C3=O)[C@@H](Cc3ccc(C)cc3)C(=O)N(C)CC(=O)N[C@@H](CCc3ccc(C(F)(F)F)c(OC)c3)C(=O)N2C1 [PP1872],–,–,–,–,A (a compound having 10 or more and less than 20 is denoted as A),A (a compound having 10 or more and less than 20 is denoted as A)
8.15,–,C=CCCC[C@H]1C(=O)N[C@@H]([C@@H](C)CC)C(=O)N(C)CC(=O)N(C)[C@H]2CCCCN(C2=O)[C@@H](Cc2ccc(C(F)(F)F)cc2)C(=O)N(C)CC(=O)N[C@@H](CCc2cc(F)c(C(F)(F)F)c(F)c2)C(=O)N2C[C@H](OCC)C[C@H]2C(=O)N[C@](C)(CC=C)C(=O)N(C)[C@@H](C2CCCC2)C(=O)N(C)[C@H](C(=O)N2CCOCC2)CC(=O)N1C [PP0876],C (A compound having a KD ratio of 0.1 or more and less than 3 is denoted as C),C (A compound having a KD ratio of 0.1 or more and less than 3 is denoted as C),–,–,–,–

# Further lines, the compound ahead of its results:
Compound,pIC50 [3],"pIC50 ([3]; NCI-H441 cells, 4 days, CellTiter-Glo, read-out: NCl-H441 IC50)","NRAS /KRAS [1, 4]","HRAS /KRAS [2, 5]","NRAS /KRAS [1, 6]","HRAS /KRAS [2, 7]","NRAS /KRAS [1, 8]","HRAS /KRAS [2, 9]"
CC[C@H](C)[C@@H]1NC(=O)[C@H](CC(C)C)N(C)C(=O)C[C@@H](C(=O)N2CCOCC2)N(C)C(=O)[C@H](C2CCCC2)N(C)C(=O)C2(CCCC2)NC(=O)[C@@H]2CC(F)(F)CN2C(=O)[C@H](CCc2cc(F)c(C(F)(F)F)c(F)c2)NC(=O)CN(C)C(=O)[C@H](Cc2ccc(C(F)(F)F)cc2)N2CCCCC[C@@H](C2=O)N(C)C(=O)CN(C)C1=O [PP0491],7.48,–,–,–,B (a compound having 3 or more and less than 10 is denoted as B),B (a compound having 3 or more and less than 10 is denoted as B),–,–
CCO[C@@H]1C[C@H]2C(=O)NC3(CCCC3)C(=O)N(C)[C@@H](C3CCCC3)C(=O)N(C)[C@H](C(=O)N3CCOCC3)CC(=O)N(C)[C@@H](COC)C(=O)N[C@@H]([C@@H](C)CC)C(=O)N(C)CC(=O)N(C)[C@H]3CCCCCN(C3=O)[C@@H](Cc3ccc(C(F)(F)F)cc3)C(=O)N(C)CC(=O)N[C@@H](CCc3cc(F)c(C(F)(F)F)c(F)c3)C(=O)N2C1 [PP0841],6.95,–,B (a compound having 3 or more and less than 10 is denoted as B),B (a compound having 3 or more and less than 10 is denoted as B),–,–,–,–
CC[C@H](C)[C@@H]1NC(=O)[C@H](CC(C)C)N(C)C(=O)C[C@@H](C(=O)N2CCOCC2)N(C)C(=O)[C@H](C2CCCC2)N(C)C(=O)C2(CCCC2)NC(=O)[C@@H]2CCCN2C(=O)[C@H](CCc2ccc(C(F)(F)F)c(Cl)c2)NC(=O)CN(C)C(=O)[C@H](Cc2ccc(C(F)(F)F)cc2)N(CC2CCC2)C(=O)CN(C)C(=O)CN(C)C1=O [PP0123] ([NMeL]I[Sar][Sar][X39][Sar][hPhe(3-Cl-4-CF3)]P[Ac5c][NMeGly(cPent)][NMeD]-Morpholide; lactam N-11),7.90,–,B (a compound having 3 or more and less than 10 is denoted as B),C (A compound having a KD ratio of 0.1 or more and less than 3 is denoted as C),–,–,–,–
CC(C)C[C@H]1C(=O)N[C@@H](C2CCC2)C(=O)N(C)CC(=O)N(C)[C@H]2CCCCN(C2=O)[C@@H](Cc2ccc(C(F)(F)F)cc2)C(=O)N(C)CC(=O)N[C@@H](CCc2cc(F)c(C(F)(F)F)c(F)c2)C(=O)N2CCC[C@H]2C(=O)NC2(CCCC2)C(=O)N(C)[C@@H](C2CCCC2)C(=O)N(C)[C@H](C(=O)N2CCOCC2)CC(=O)N1C [PP0596],8.08,–,–,–,B (a compound having 3 or more and less than 10 is denoted as B),B (a compound having 3 or more and less than 10 is denoted as B),–,–
CC[C@H](C)[C@@H]1NC(=O)[C@H](CC(C)C)N(C)C(=O)C[C@@H](C(=O)N2CCOCC2)N(CC)C(=O)[C@H](C2CCCC2)N(C)C(=O)C2(CCCC2)NC(=O)[C@@H]2CCCN2C(=O)[C@H](CCc2cc(F)c(C(F)(F)F)c(F)c2)NC(=O)CN(C)C(=O)[C@H](Cc2ccc(C(F)(F)F)cc2)N2CCCC[C@@H](C2=O)N(C)C(=O)CN(C)C1=O [PP0539],8.20,–,–,–,B (a compound having 3 or more and less than 10 is denoted as B),B (a compound having 3 or more and less than 10 is denoted as B),–,–
CCCN1C(=O)[C@@H]2CCN2C(=O)[C@H](C)N(C)C(=O)[C@H]([C@@H](C)CC)NC(=O)[C@H](CC(C)C)N(C)C(=O)C[C@@H](C(=O)N2CCOCC2)N(C)C(=O)[C@H](C2CCCC2)N(C)C(=O)C2(CCCC2)NC(=O)[C@@H]2C[C@@H](O)CN2C(=O)[C@H](CCc2ccc(C(F)(F)F)c(Cl)c2)NC(=O)CN(C)C(=O)[C@@H]1Cc1ccc(C(F)(F)F)cc1 [PP0239] ([NMeL]I[NMeA][Aze][NPrPhe(4-CF3)][Sar][hPhe(3-Cl-4-CF3)][Hyp][Ac5c][NMeGly(cPent)][NMeD]-Morpholide; lactam N-11),8.21,–,C (A compound having a KD ratio of 0.1 or more and less than 3 is denoted as C),B (a compound having 3 or more and less than 10 is denoted as B),–,–,–,–
"CCCN1C(=O)[C@@H]2CCN2C(=O)CN(C)C(=O)[C@H]([C@@H](C)CC)NC(=O)[C@H](CC(C)C)N(C)C(=O)C[C@@H](C(=O)N2CCOCC2)N(C)C(=O)[C@H](C2CCCC2)N(C)C(=O)C2(COC2)NC(=O)[C@@H]2CCCN2C(=O)[C@H](CCc2cc(F)c(C(F)(F)F)c(F)c2)NC(=O)CN(C)C(=O)[C@@H]1Cc1ccc(C(F)(F)F)cc1 [PP0801] ([NMeL]I[Sar][Aze][NPrPhe(4-CF3)][Sar][hPhe(3,5-F2-4-CF3)]P[Ac4c(3-oxa)][NMeGly(cPent)][NMeD]-Morpholide; lactam N-11)",7.54,–,C (A compound having a KD ratio of 0.1 or more and less than 3 is denoted as C),B (a compound having 3 or more and less than 10 is denoted as B),–,–,–,–
